The source made the active and inactive calls. No cut-off for these calls is given here.

Test [1] can be described thus: Inhibition of proteinase K at 0.75 mM pretreated for 1 hr by RT-PCR analysis.
The test system of test [2] is HeLa. Put plainly: Inhibition of proteinase K in human HeLa cells assessed as beta-actin RNA level at 0.5 mM by RT-PCR analysis. Format: cell-based.
Test [3] can be described thus: Inhibition of proteinase K at 0.25 mM by RT-PCR analysis in presence of BSA.
A short description of test [4]: Inhibition of proteinase K at 0.5 mM pretreated for 1 hr by RT-PCR analysis.
The nature of test [5]: Inhibition of proteinase K at 0.25 to 1 mM pretreated for 1 hr by RT-PCR analysis.
A short description of test [6]: Inhibition of proteinase K at 0.10 mM by RT-PCR analysis in presence of BSA.
The nature of test [7]: Inhibition of proteinase K at 0.05 mM pretreated for 1 hr by RT-PCR analysis.
Test [8] has as its system HeLa. Briefly: Inhibition of proteinase K in human HeLa cells assessed as beta-actin RNA level at 0.10 mM by RT-PCR analysis. Format: cell-based.

On to `COC(=O)CCC(=O)N[C@@H](C)C(=O)N[C@H](C)C(=O)N[C@@H](C)C(=O)N1CCC[C@H]1C(=O)N[C@H](C(=O)CCl)C(C)C`, for which the inhibition result (in test [1]; with HeLa [2]; in test [3]; in test [5]) was “Active” in each case. For the same molecule, in test [4], the inhibition result is “inactive”.

As for `COC(=O)CCC(=O)N[C@@H](C)C(=O)N[C@H](C)C(=O)N[C@@H](C)C(=O)N1CCC[C@H]1C(=O)N[C@@H](CC(C)C)C(=O)CCl`, the inhibition result (in test [6]; in test [7]; with HeLa [8]) was “Active” throughout.

The record behind these values is ChEMBL document CHEMBL1158542, “Synthesis and biological evaluation of modified pentapeptides as potent proteinase K inhibitors” (Bioorg Med Chem Lett, 2010).
